Experimental data taken from patent publication US11571423B2, “Small molecule modulators of human sting” (Curadev Pharma Limited, priority 2017, dated 2023).
Counter-ions that a name gives are not always drawn. Like-named read-outs stand apart in the source and are kept apart here.

Experiments:
[1] = target: hSTING(R232) (Homo sapiens, UniProt Q86WV6, H232R); assay: Luciferase reporter assay in HEK293T-hSTING-Luciferase cells, R232 (wild type) human STING; format: cell-based; details: 20 hr stimulation
hSTING(R232), sequence (Q86WV6 whole entry H232R, the tested form may be a part): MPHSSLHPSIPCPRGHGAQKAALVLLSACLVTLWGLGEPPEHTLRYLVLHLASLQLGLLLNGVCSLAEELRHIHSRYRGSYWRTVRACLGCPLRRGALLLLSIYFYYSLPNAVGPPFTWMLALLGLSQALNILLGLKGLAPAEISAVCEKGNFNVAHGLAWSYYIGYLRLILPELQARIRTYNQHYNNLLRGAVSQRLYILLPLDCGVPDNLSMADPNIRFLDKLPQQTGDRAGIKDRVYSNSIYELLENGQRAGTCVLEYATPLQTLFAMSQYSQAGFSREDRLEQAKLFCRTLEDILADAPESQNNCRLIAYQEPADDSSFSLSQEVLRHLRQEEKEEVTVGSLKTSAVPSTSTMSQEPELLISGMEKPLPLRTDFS
Method in brief: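 After 20 hr compound stimulation of 5×10^5 cells, secreted luciferase in the supernatant was measured by luminescence; values are fold-induction over baseline and EC50. The line is a clonal HEK293T stably carrying a STING plasmid (pUNO-1) and a luciferase reporter under five tandem ISREs fused to an ISG54 promoter.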

[2] = target: cynomolgus monkey STING protein (Macaca fascicularis, UniProt A0A2R3XZA6); assay: Luciferase reporter assay, cynomolgus monkey STING overexpressed in HEK293T cells; format: cell-based
cynomolgus monkey STING protein, sequence (A0A2R3XZA6 entry or part of it): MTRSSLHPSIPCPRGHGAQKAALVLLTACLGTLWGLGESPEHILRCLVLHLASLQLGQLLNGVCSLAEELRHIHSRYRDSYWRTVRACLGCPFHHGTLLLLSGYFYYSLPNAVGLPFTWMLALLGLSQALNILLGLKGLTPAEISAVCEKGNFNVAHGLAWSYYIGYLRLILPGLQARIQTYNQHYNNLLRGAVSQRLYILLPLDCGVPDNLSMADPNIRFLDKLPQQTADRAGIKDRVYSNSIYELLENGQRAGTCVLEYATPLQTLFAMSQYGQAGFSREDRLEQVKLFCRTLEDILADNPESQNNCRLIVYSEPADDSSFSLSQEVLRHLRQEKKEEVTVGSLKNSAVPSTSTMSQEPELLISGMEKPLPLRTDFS
Experimental: 5×10^5 clonally selected HEK293T-hSTING-Luciferase cells were seeded in 384-well plates in growth medium and stimulated with novel compounds. After 20 hr of stimulation supernatant were removed and secretary reporter gene activity were measured using the Quanti-Luc detection system (Invivogen) on a Spectramax i3X luminometer.
In the tables below, EC50 value ranges for exemplary compounds are given.
Selected compounds were further tested against cynomolgus monkey STING protein overexpressed in HEK293T cells.

[3] = read-out: R232 human activity (EC50 range)
[4] = cynomolgus monkey STING overexpressed in HEK293T cells, read-out: Cynomolgus monkey STING activity (EC50 range)

Structure (SMILES)	EC50 [1, 3] [nM]	EC50 [2, 4] [nM]	EC50 ([1]; R232 human activity (EC50 range)) [nM]	EC50 [2] [nM]
COc1ccc(F)c(CN2C(=O)N(C)[C@@H](C)c3ccc(C(=O)NCc4c(F)cc(F)cc4F)cc32)c1F [Example 258, (S)-1-(2,6-difluoro-3-methoxybenzyl)-3,4-dimethyl-2-oxo-N-(2,4,6-trifluorobenzyl)-1,2,3,4-tetrahydroquinazoline-7-carboxamide]	< 1000	< 1000		
COc1cc(F)cc(F)c1CN1C(=O)N(C)[C@@H](C)c2ccc(C(=O)NCc3c(F)cc(F)cc3F)cc21 [Example 259, (S)-1-(2,4-difluoro-6-methoxybenzyl)-3,4-dimethyl-2-oxo-N-(2,4,6-trifluorobenzyl)-1,2,3,4-tetrahydroquinazoline-7-carboxamide]	< 1000	< 1000		
C[C@H]1c2ccc(C(=O)NCc3c(F)cc(F)cc3F)cc2N(Cc2c(O)cc(F)cc2F)C(=O)N1C [Example 260, (S)-1-(2,4-difluoro-6-hydroxybenzyl)-3,4-dimethyl-2-oxo-N-(2,4,6-trifluorobenzyl)-1,2,3,4-tetrahydroquinazoline-7-carboxamide]	< 1000	< 1000		
C[C@H]1c2ccc(C(=O)NCc3c(F)cc(F)cc3F)cc2N(Cc2cc(OCCO)ccc2F)C(=O)N1C [Example 263, (S)-1-(2-fluoro-5-(2-hydroxyethoxy)benzyl)-3,4-dimethyl-2-oxo-N-(2,4,6-trifluorobenzyl)-1,2,3,4-tetrahydroquinazoline-7-carboxamide]	< 1000	1000 to 10000		
COc1cc(F)c(CN2C(=O)N(C)[C@@H](C)c3ccc(C(=O)NCc4c(F)cc(F)cc4F)cc32)cc1OC [Example 265, (S)-1-(2-fluoro-4,5-dimethoxybenzyl)-3,4-dimethyl-2-oxo-N-(2,4,6-trifluorobenzyl)-1,2,3,4-tetrahydroquinazoline-7-carboxamide]	< 1000	< 1000		
C[C@H]1c2ccc(C(=O)NCc3c(F)cc(F)cc3F)cc2N(Cc2c(F)ccc(CO)c2F)C(=O)N1C [Example 269, (S)-1-(2,6-difluoro-3-(hydroxymethyl)benzyl)-3,4-dimethyl-2-oxo-N-(2,4,6-trifluorobenzyl)-1,2,3,4-tetrahydroquinazoline-7-carboxamide]	< 1000	< 1000		
COc1cc(F)c(F)c(CN2C(=O)N(C)[C@@H](C)c3ccc(C(=O)NCc4c(F)cc(F)cc4F)cc32)c1 [Example 270, (S)-1-(2,3-difluoro-5-methoxybenzyl)-3,4-dimethyl-2-oxo-N-(2,4,6-trifluorobenzyl)-1,2,3,4-tetrahydroquinazoline-7-carboxamide]	< 1000	< 1000		
C[C@H]1c2ccc(C(=O)NCc3c(F)cc(F)cc3F)cc2N(Cc2cc(OCCCO)ccc2F)C(=O)N1C [Example 271, (S)-1-(2-fluoro-5-(3-hydroxypropoxy)benzyl)-3,4-dimethyl-2-oxo-N-(2,4,6-trifluorobenzyl)-1,2,3,4-tetrahydroquinazoline-7-carboxamide]	< 1000	1000 to 10000		
C[C@H]1c2ccc(C(=O)NCc3c(F)cc(F)cc3F)cc2N(Cc2cc(N)ccc2F)C(=O)N1C [Example 273, (S)-1-(5-amino-2-fluorobenzyl)-3,4-dimethyl-2-oxo-N-(2,4,6-trifluorobenzyl)-1,2,3,4-tetrahydroquinazoline-7-carboxamide]	< 1000	1000 to 10000		
C[C@H]1c2ccc(C(=O)NCc3c(F)cc(F)cc3F)cc2N(Cc2c(F)cc(F)cc2OCCCO)C(=O)N1C [Example 275, (S)-1-(2,4-difluoro-6-(3-hydroxypropoxy)benzyl)-3,4-dimethyl-2-oxo-N-(2,4,6-trifluorobenzyl)-1,2,3,4-tetrahydroquinazoline-7-carboxamide]	< 1000	> 10000		
C[C@H]1c2ccc(C(=O)NCc3c(F)cc(F)cc3F)cc2N(Cc2cc(OCCO)cc(F)c2F)C(=O)N1C [Example 282, (S)-1-(2,3-difluoro-5-(2-hydroxyethoxy)benzyl)-3,4-dimethyl-2-oxo-N-(2,4,6-trifluorobenzyl)-1,2,3,4-tetrahydroquinazoline-7-carboxamide]	< 1000	1000 to 10000		
C[C@H]1c2ccc(C(=O)NCc3c(F)cc(F)cc3F)cc2N(Cc2c(F)cc(N)cc2F)C(=O)N1C [Example 286, (S)-1-(4-amino-2,6-difluorobenzyl)-3,4-dimethyl-2-oxo-N-(2,4,6-trifluorobenzyl)-1,2,3,4-tetrahydroquinazoline-7-carboxamide]	< 1000	< 1000		
CC(O)c1ccc(F)c(CN2C(=O)N(C)[C@@H](C)c3ccc(C(=O)NCc4c(F)cc(F)cc4F)cc32)c1F (stereo partly drawn) [Example 289, (4S)-1-(2,6-difluoro-3-(1-hydroxyethyl)benzyl)-3,4-dimethyl-2-oxo-N-(2,4,6-trifluorobenzyl)-1,2,3,4-tetrahydroquinazoline-7-carboxamide]	< 1000	1000 to 10000		
C[C@H]1c2ccc(C(=O)NCc3c(F)cc(F)cc3F)cc2N(Cc2c(F)cc(OCCN3CCOCC3)cc2F)C(=O)N1C [Example 291, (S)-1-(2,6-difluoro-4-(2-morpholinoethoxy)benzyl)-3,4-dimethyl-2-oxo-N-(2,4,6-trifluorobenzyl)-1,2,3,4-tetrahydroquinazoline-7-carboxamide]	< 1000	< 1000		
C[C@H]1c2ccc(C(=O)NCc3c(F)cc(F)cc3F)cc2N(Cc2c(F)cc(OCCCC(=O)O)cc2F)C(=O)N1C [Example 294, (S)-4-(4-((3,4-dimethyl-2-oxo-7-((2,4,6-trifluorobenzyl)carbamoyl)-3,4-dihydroquinazolin-1(2H)-yl)methyl)-3,5-difluorophenoxy)butanoic acid]	< 1000	< 1000		
C[C@H]1c2ccc(C(=O)NCc3c(F)cc(F)cc3F)cc2N(Cc2c(F)cncc2F)C(=O)N1C [Example 295, (S)-1-((3,5-difluoropyridin-4-yl)methyl)-3,4-dimethyl-2-oxo-N-(2,4,6-trifluroobenzyl)-1,2,3,4-tetrahydroquinazoline-7-carboxamide]	< 1000	< 1000		
C[C@H]1c2ccc(C(=O)NCc3c(F)cc(F)cc3F)cc2N(Cc2c(F)cc(OCCN)cc2Cl)C(=O)N1C [Example 299, (S)-1-(4-(2-aminoethoxy)-2-chloro-6-fluorobenzyl)-3,4-dimethyl-2-oxo-N-(2,4,6-trifluorobenzyl)-1,2,3,4-tetrahydroquinazoline-7-carboxamide hydrochloride]	< 1000	> 10000		
CNCCN(C)C(=O)Oc1ccc(F)c(CN2C(=O)N(C)[C@@H](C)c3ccc(C(=O)NCc4c(F)cc(F)cc4F)cc32)c1Cl [Example 300, (S)-2-chloro-3-((3,4-dimethyl-2-oxo-7-((2,4,6-trifluorobenzyl)carbamoyl)-3,4-dihydroquinazolin-1(2H)-yl)methyl)-4-fluorophenyl-methyl(2-(methylamino)ethyl)carbamate hydrochloride]			< 1000	< 1000
